Assay results published in patent US20110091484A1, “Compositions and methods for preventing or treating a viral infection” (priority 2005, published 2011).
“And” between values parts separate entries of the source, which are not always exact repeats. Equal entries are not always repeated.

Test system: WR vaccinia virus-infected 143B cell cultures
Format: in vivo, mice

**Q.** With `CC(C)Cn1cnc2c(N)nc3ccccc3c21` [Imiquimod] as the molecule, how does the “% Inhibition (plaque inhibition)” value read?
**A.** 13% and 22.6%
